Results published in ChEMBL document CHEMBL3763069, “Synthesis of fluorinated carbazoles via C-H arylation catalyzed by Pd/Cu bimetal system and their antibacterial activities” (2016).
In brackets after ≈: the same amount, converted by molar mass.

Tests used:
Format in all cases: functional
Bacillus subtilis = experiment: Antibacterial activity against Bacillus subtilis incubated for 20 hrs by microbroth dilution method
Staphylococcus aureus [1] = experiment: Antibacterial activity against Staphylococcus aureus incubated for 20 hrs by microbroth dilution method
Escherichia coli = experiment: Antibacterial activity against Escherichia coli incubated for 20 hrs by microbroth dilution method
Staphylococcus aureus [2] = experiment: Antibacterial activity against methicillin-resistant Staphylococcus aureus incubated for 20 hrs by microbroth dilution method

SMILES	MIC (Bacillus subtilis) [µg/mL]	MIC (Staphylococcus aureus [1]) [µg/mL]	MIC (Escherichia coli) [µg/mL]	MIC (Staphylococcus aureus [2]) [µg/mL]
Fc1ccc2c(c1)[nH]c1cc(F)cc(F)c12	3.12 (≈ 14.1 µM)	1.56 (≈ 7.05 µM)	25 (≈ 113 µM)	12.5 (≈ 56.5 µM)
CCc1ccc2[nH]c3c(C)ccc(F)c3c2c1	3.12 (≈ 13.7 µM)	3.12 (≈ 13.7 µM)		3.12 (≈ 13.7 µM)
Fc1cc(F)c2c(c1)[nH]c1ccccc12	6.25 (≈ 30.8 µM)	25 (≈ 123 µM)	25 (≈ 123 µM)	12.5 (≈ 61.5 µM)
Fc1ccc2[nH]c3c(F)cc(F)c(F)c3c2c1	3.12 (≈ 13.1 µM)	1.56 (≈ 6.52 µM)		6.25 (≈ 26.1 µM)
Fc1cc(F)c2[nH]c3cc(C(F)(F)F)ccc3c2c1F	0.78 (≈ 2.7 µM)	0.78 (≈ 2.7 µM)		3.12 (≈ 10.8 µM)
Cc1ccc(F)c2c1[nH]c1ccccc12	6.25 (≈ 31.4 µM)	50 (≈ 251 µM)		12.5 (≈ 62.7 µM)
CCc1ccc2[nH]c3cc(F)cc(F)c3c2c1	3.12 (≈ 13.5 µM)	1.56 (≈ 6.75 µM)		3.12 (≈ 13.5 µM)
Fc1ccc2c(c1)[nH]c1c(F)cc(F)c(F)c12	3.12 (≈ 13.1 µM)	3.12 (≈ 13.1 µM)		6.25 (≈ 26.1 µM)
CCc1ccc2[nH]c3c(F)cc(F)c(F)c3c2c1	3.12 (≈ 12.5 µM)	3.12 (≈ 12.5 µM)		3.12 (≈ 12.5 µM)
Cc1ccc2[nH]c3cc(F)cc(F)c3c2c1	3.12 (≈ 14.4 µM)	100 (≈ 460 µM)		3.12 (≈ 14.4 µM)
Cc1ccc2c(c1)[nH]c1c(F)cc(F)c(F)c12	3.12 (≈ 13.3 µM)	6.25 (≈ 26.6 µM)		6.25 (≈ 26.6 µM)
Cc1ccc2[nH]c3c(C)ccc(F)c3c2c1	6.25 (≈ 29.3 µM)	6.25 (≈ 29.3 µM)		6.25 (≈ 29.3 µM)
Fc1cc(F)c2c(c1)[nH]c1ccc(F)cc12	3.12 (≈ 14.1 µM)	1.56 (≈ 7.05 µM)	12.5 (≈ 56.5 µM)	3.12 (≈ 14.1 µM)
Cc1ccc(F)c2c1[nH]c1cc(C(F)(F)F)ccc12	3.12 (≈ 11.7 µM)	1.56 (≈ 5.84 µM)		3.12 (≈ 11.7 µM)
Cc1ccc2[nH]c3c(F)cc(F)c(F)c3c2c1	3.12 (≈ 13.3 µM)	6.25 (≈ 26.6 µM)		6.25 (≈ 26.6 µM)
Cc1ccc(F)c2c1[nH]c1cc(F)ccc12	6.25 (≈ 28.8 µM)	50 (≈ 230 µM)		6.26 (≈ 28.8 µM)
Fc1cc(F)c2c(c1)[nH]c1cc(C(F)(F)F)ccc12	0.78 (≈ 2.88 µM)	0.39 (≈ 1.44 µM)		3.12 (≈ 11.5 µM)
Cc1ccc2c(c1)[nH]c1cc(F)cc(F)c12	3.12 (≈ 14.4 µM)	3.12 (≈ 14.4 µM)		3.12 (≈ 14.4 µM)
Fc1cc(F)c2[nH]c3ccccc3c2c1F	6.25 (≈ 28.3 µM)	6.25 (≈ 28.3 µM)		12.5 (≈ 56.5 µM)
CC1(C)S[C@@H]2[C@H](NC(=O)[C@H](N)c3ccccc3)C(=O)N2[C@H]1C(=O)O [AMPICILLIN]	< 0.2	0.2 (≈ 0.572 µM)	3.12 (≈ 8.94 µM)	
C[C@@H](O)[C@H]1C(=O)N2C(C(=O)O)=C(S[C@@H]3CN[C@H](C(=O)N(C)C)C3)[C@H](C)[C@H]12 [MEROPENEM]	3.12 (≈ 8.15 µM)	0.78 (≈ 2.03 µM)	0.05 (≈ 0.13 µM)	0.78 (≈ 2.03 µM)
CN[C@@H]1[C@H](O[C@H]2[C@H](O[C@H]3[C@H](O)[C@@H](O)[C@H](N=C(N)N)[C@@H](O)[C@@H]3N=C(N)N)O[C@@H](C)[C@]2(O)C=O)O[C@@H](CO)[C@H](O)[C@H]1O [STREPTOMYCIN]	3.21 (≈ 5.53 µM)	3.12 (≈ 5.37 µM)	3.12 (≈ 5.37 µM)	3.12 (≈ 5.37 µM)
